Here are results for 26 molecules from article PMC4726260, “Combined ligand-observe ^19F and protein-observe ^15N,^1H-HSQC NMR suggests phenylalanine as the key Δ-somatostatin residue recognized by human protein disulfide isomerase” (Scientific Reports, 2016).

Non-standard residues stand in square brackets, D forms with d. Residues, ends and D or L forms follow the SMILES beside them. No end group written: not given here. Phe(4-F) = N[C@@H](Cc1ccc(F)cc1)C(=O)O

For orientation: stoichiometry N means a count of units in the complex or per binding partner.

Assay [1] deals with T1, hPDI b’x (Homo sapiens, UniProt P07237).
T1 construct: There is also a short 19 amino acid x-linker region between the b’ and a’ domains; made in house; host or cells: E. coli
T1 sequence (P07237 230-368 limits assumed): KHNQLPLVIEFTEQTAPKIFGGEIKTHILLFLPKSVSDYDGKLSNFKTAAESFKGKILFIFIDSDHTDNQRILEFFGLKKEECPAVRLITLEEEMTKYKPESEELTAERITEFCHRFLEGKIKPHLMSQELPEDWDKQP
In words: Protein-observe 15N,1H-HSQC NMR titration (chemical shift perturbation, Kd). Format: binding. Conditions: for Kd: read-out: Dissociation constant (Kd), PROTEIN 15N/1H Tracked; for Binding classification from 15N,1H-HSQC titration series: 310 K, pH 7.0, resonance shifts throughout the titration. Here is the method:
(§1) NMR titrations were carried out by collecting ^19F NMR spectra (at a constant peptide concentration of 0.15 mM) and ^15N,^1H-HSQC spectra (at a constant protein concentration of 0.25 mM). This provided binding perspectives from both peptide and protein. ^19F NMR data provided precise curve fits of equation (1) with Kd values in agreement with those obtained by ^15N NMR (Table 1). […] Triple fluorinated peptide spectra are shown in Fig. 4 with example Kd graphs plotted using chemical shift change against b’x concentration (see Supplementary Information SV for single fluorinated peptide ^19F spectra).
(§2) All spectra were collected using a 4-channel, 5-amplifier Bruker Avance III 14.1 T (600 MHz ^1H) NMR spectrometer equipped with a 5 mm QCI-F cryoprobe. ^15N,^1H-HSQC spectra were acquired over 45 min on samples containing 0.25 mM b’x and varying peptide concentrations. Each ^19F 1D spectrum was acquired over 60 min on samples of 0.15 mM Δ-som with varying protein concentration. Ratios of the variable:static components in each experiment were 1:4, 1:2, 1:1, 1.5:1, 2:1 and 2.5:1. All samples were run at 310 K in 20 mM sodium phosphate buffer (pH 7.0) containing 50 mM NaCl, 5% D6-DMSO, 5% ^2H2O and 0.05% sodium azide. 1D NMR data were processed using Bruker Topspin software and referenced using the position of trifluoroacetic acid (−76.55 ppm). 2D data were processed using NMRPipe[31] and analysed using the CCPN Analysis software package.
Amide chemical shifts were calculated in Hz as √[(0.6Δ^1H)^2 + (Δ^15N)^2]. Dissociation constants (Kd) for each shifting peak were calculated by plotting the chemical shift perturbation (Hz) against ligand concentration (mM) and fitting the curve to the equation: […]
(§3) where Δobs is the observed chemical shift perturbation, Δmax the maximum chemical shift perturbation and [P] and [L] the protein and ligand concentrations respectively. This equation was used to fit both ^15N and ^19F NMR data using KaleidaGraph 4.0 (Synergy Software). Standard errors from the Levenberg-Marquardt fitting routine were taken as the uncertainties. We determined Kd from ^15N,^1H HSQC NMR data using two approaches: First, by simultaneous fitting all shifts which are averaged to create a single plot, which is considered an accurate method of Kd determination. Second, we tracked and fitted each peak individually to the equation above and averaged all results and errors across all fits. […] This hPDI system creates Kd values with shallow binding curve where errors where average chemical shifts reduce fitting accuracy and individual fitting produces higher resoltuion. Therefore, we used Kd values from the averaged individual fit method within this paper to report smaller errors.

Assay [2] has as its target T1, hPDI b’x. In words: Ligand-observe 19F NMR titration (chemical shift change vs b’x concentration, Kd). Format: binding. Conditions: 310 K. Here is the method:
as §1, §2, §3

In assay [3] the target is Δ-somatostatin (Homo sapiens) (UniProt P61278). In words: 19F NMR. Conditions: cited from earlier work.
The target of assay [4] is human protein disulphide isomerase (hPDI) b'x fragment (human) (UniProt P07237). Description: SEC; gel filtration elution profile of 15N labelled b'x (step of the purification); absorbance at 280 nm. (SEC sorts molecules by how far they enter the pores of the column.)
Assay [5] deals with human protein disulphide isomerase (hPDI) fragment b'x (human). In words: NMR titration; protein-observed 15N,1H-HSQC; 0.25 mM 15N b'x constant, peptide titrated (ratios 1:4 to 2.5:1); 310 K; 20 mM sodium phosphate pH 7.0, 50 mM NaCl, 5% D6-DMSO, 5% 2H2O, 0.05% sodium azide; Kd is the average of the fits of the individual shifting peaks.
Setting [6] is: 15N,1H-HSQC, constant 0.25 mM 15N b’x, varying peptide (ratios 1:4 to 2.5:1), 310 K (37 °C), 20 mM sodium phosphate pH 7.0, 50 mM NaCl, 5% D6-DMSO, average of individual residue fits, ± standard error of Levenberg-Marquardt fit.
Where [7] appears, read: 19F 1D NMR, constant 0.15 mM singly fluorinated peptide, varying b’x, 20 mM sodium phosphate pH 7.0, 50 mM NaCl, 5% D6-DMSO, ± standard error of fit, read-out: Dissociation constant (Kd), LIGAND 19F Tracked (Single-F).

Take `C[C@H](N)C(=O)NCC(=O)N[C@@H](CO)C(=O)N[C@@H](CCCCN)C(=O)N[C@@H](CC(N)=O)C(=O)N[C@@H](Cc1ccc(F)cc1)C(=O)N[C@@H](Cc1ccccc1)C(=O)N[C@@H](Cc1c[nH]c2ccccc12)C(=O)N[C@@H](CCCCN)C(=O)N[C@H](C(=O)N[C@@H](Cc1ccccc1)C(=O)N[C@H](C(=O)N[C@@H](CO)C(=O)N[C@@H](CO)C(=O)O)[C@@H](C)O)[C@@H](C)O` [F1 Δ-som] (H-AGSKN[Phe(4-F)]FWKTFTSS-OH): the Kd at hPDI b’x [1] (setting [6]) stood at 61 ± 47 µM; on hPDI b’x [2] (setting [7]), 109 ± 13 µM.

As for `C[C@H](N)C(=O)NCC(=O)N[C@@H](CO)C(=O)N[C@@H](CCCCN)C(=O)N[C@@H](CC(N)=O)C(=O)N[C@@H](Cc1ccc(F)cc1)C(=O)N[C@@H](Cc1ccc(F)cc1)C(=O)N[C@@H](Cc1c[nH]c2ccccc12)C(=O)N[C@@H](CCCCN)C(=O)N[C@H](C(=O)N[C@@H](Cc1ccc(F)cc1)C(=O)N[C@H](C(=O)N[C@@H](CO)C(=O)N[C@@H](CO)C(=O)O)[C@@H](C)O)[C@@H](C)O` [F1,2,3 Δ-som] (H-AGSKN[Phe(4-F)][Phe(4-F)]WKT[Phe(4-F)]TSS-OH), the Kd at hPDI b’x [1] (setting [6]) was 48 ± 35 µM; at hPDI b’x [2] (19F 1D NMR, F1 (Phe6) resonance of triple fluorinated peptide, 0.15 mM peptide, varying b’x, pH 7.0, ± standard error of fit, read-out: Dissociation constant (Kd), LIGAND 19F Tracked (Triple-F), F1 peak) it was 108 ± 15 µM; on hPDI b’x [2] (19F 1D NMR, F2 (Phe7) resonance of triple fluorinated peptide, 0.15 mM peptide, varying b’x, pH 7.0, ± standard error of fit, read-out: Dissociation constant (Kd), LIGAND 19F Tracked (Triple-F), F2 peak), 33 ± 11 µM; on hPDI b’x [2] (19F 1D NMR, F3 (Phe11) resonance of triple fluorinated peptide, 0.15 mM peptide, varying b’x, pH 7.0, ± standard error of fit, read-out: Dissociation constant (Kd), LIGAND 19F Tracked (Triple-F), F3 peak) it was 45 ± 14 µM; on hPDI b’x [2] (mean of the Kd from each monitored 19F resonance in the triple fluorinated peptide, 0.15 mM peptide, pH 7.0, read-out: Dissociation constant (Kd), LIGAND 19F Tracked (Triple-F), mean Kd) it was 62 ± 13 µM.

For the molecule `C[C@H](N)C(=O)NCC(=O)N[C@@H](CO)C(=O)N[C@@H](CCCCN)C(=O)N[C@@H](CC(N)=O)C(=O)N[C@@H](Cc1ccccc1)C(=O)N[C@@H](Cc1ccc(F)cc1)C(=O)N[C@@H](Cc1c[nH]c2ccccc12)C(=O)N[C@@H](CCCCN)C(=O)N[C@H](C(=O)N[C@@H](Cc1ccccc1)C(=O)N[C@H](C(=O)N[C@@H](CO)C(=O)N[C@@H](CO)C(=O)O)[C@@H](C)O)[C@@H](C)O` [F2 Δ-som] (H-AGSKNF[Phe(4-F)]WKTFTSS-OH), the Kd at hPDI b’x [1] (setting [6]) is 51 ± 30 µM; on hPDI b’x [2] (setting [7]), 27 ± 3 µM.

Regarding `C[C@H](N)C(=O)NCC(=O)N[C@@H](CO)C(=O)N[C@@H](CCCCN)C(=O)N[C@@H](CC(N)=O)C(=O)N[C@@H](Cc1ccccc1)C(=O)N[C@@H](Cc1ccccc1)C(=O)N[C@@H](Cc1c[nH]c2ccccc12)C(=O)N[C@@H](CCCCN)C(=O)N[C@H](C(=O)N[C@@H](Cc1ccc(F)cc1)C(=O)N[C@H](C(=O)N[C@@H](CO)C(=O)N[C@@H](CO)C(=O)O)[C@@H](C)O)[C@@H](C)O` [F3 Δ-som] (H-AGSKNFFWKT[Phe(4-F)]TSS-OH), the Kd at hPDI b’x [1] (setting [6]) was 84 ± 53 µM; at hPDI b’x [2] (setting [7]), 97 ± 21 µM.

As to “AGSKNAAWKTATSS [Phe6,7,11 → Ala Δ-som, triple Phe → Ala peptide of Δ-som]”, on hPDI b’x [1] (0.25 mM 15N b’x), the “Binding classification from 15N,1H-HSQC titration series” value is “non-binding”. The “Chemical shifts identified at the end point of the titration” value on hPDI b’x [1] (15N,1H-HSQC, 0.25 mM 15N b’x, shifts did not map to the ligand binding site) is below 0.01 ppm. Besides, the “Dissociation constant (Kd), PROTEIN 15N/1H Tracked” value at hPDI b’x [1] (setting [6]) is on record as “Non binding”.

Take AGSKNAAWKTFTSS [Phe6,7 → Ala Δ-som]: the Kd at hPDI b’x [1] (setting [6]) was determined as 242 ± 177 µM.

For the molecule AGSKNAFWKTATSS [Phe6,11 → Ala Δ-som], the Kd on hPDI b’x [1] (setting [6]) worked out at 587 ± 174 µM.

Take AGSKNAFWKTFTSS [Phe6 → Ala Δ-som]: on hPDI b’x [1] (setting [6]), the Kd was 199 ± 100 µM.

Take AGSKNFAWKTATSS [Phe7,11 → Ala Δ-som]: at hPDI b’x [1] (setting [6]), the Kd came out at 412 ± 219 µM.

Regarding AGSKNFAWKTFTSS [Phe7 → Ala Δ-som], the Kd on hPDI b’x [1] (setting [6]) was found to be 123 ± 96 µM.

With AGSKNFFWKTATSS [Phe11 → Ala Δ-som], on hPDI b’x [1] (setting [6]), the Kd stood at 261 ± 101 µM.

As for AGSKNFFWKTFTSS [Δ-som, Δ-somatostatin], the Kd at hPDI b’x [1] (setting [6]) was determined as 103 ± 47 µM.

Regarding PDI b'x (from UniProt P07237), the Kd in assay [3] was 23 µM.

On to “RERQIKKQTALVELV [helix-28 from human serum albumin, helix-28 from human serum albumin (…), reference compound]”, for which the “Binding classification from 15N,1H-HSQC titration series” value at hPDI b’x [1] (0.25 mM 15N b’x) was “non-binding”.

“human protein disulphide isomerase (hPDI) b'x fragment (from UniProt P07237 18-508) (domain or fragment)” yielded a stoichiometry N in assay [4] of 2.

For AGSKNFFWKT[Phe(4-F)]TSS [F3 Δ-som], the Kd in assay [5] is 84 µM.

Consider AGSKN[Phe(4-F)][Phe(4-F)]WKT[Phe(4-F)]TSS [F1,2,3 Δ-som], for which the Kd in assay [5] worked out at 48 µM.

As for AGSKNAAWKTFTSS [Phe6,7 → Ala Δ-som], the Kd in assay [5] came out at 242 µM.

Regarding AGSKNFAWKTATSS [Phe7,11 → Ala Δ-som], in assay [5], the Kd worked out at 412 µM.

Take AGSKNFAWKTFTSS [Phe7 → Ala Δ-som]: in assay [5], the Kd turned out to be 123 µM.

Consider AGSKNAFWKTFTSS [Phe6 → Ala Δ-som], for which, in assay [5], the Kd came to 199 µM.

AGSKNFFWKTATSS [Phe11 → Ala Δ-som]: in assay [5], the Kd came out at 261 µM.

AGSKNFFWKTFTSS [Δ-somatostatin]: the Kd in assay [5] came out at 103 µM.

On to AGSKNAFWKTATSS [Phe6,11 → Ala Δ-som], for which the Kd in assay [5] worked out at 587 µM.

Take AGSKN[Phe(4-F)]FWKTFTSS [F1 Δ-som]: the Kd in assay [5] is 61 µM.

In the case of AGSKNF[Phe(4-F)]WKTFTSS [F2 Δ-som], the Kd in assay [5] was determined as 51 µM.
